Measured values published in patent US9382306B2, “Octapeptide compounds derived from somatostatin and the therapeutic use thereof” (IPSEN PHARMA S.A.S., priority 2008, dated 2016).
pKi: −log10 of the molar value. Several values for one entry are separate records, joined by “and”; a condition that tells them apart may be missing. Identical values can stand only once. Bridge positions count the residues as written; N and C are the ends. Square brackets hold non-standard residues; d marks the D form. Peptide text beside a SMILES is read from it. ξ: configuration not given here. dPhe(2-Br) = N[C@H](Cc1ccccc1Br)C(=O)O; 2Nal = N[C@@H](Cc1ccc2ccccc2c1)C(=O)O; d2Nal = N[C@H](Cc1ccc2ccccc2c1)C(=O)O; dThr(3ξ) = CC(O)[C@@H](N)C(=O)O; Thr(3ξ) = CC(O)[C@H](N)C(=O)O

Tests used:
[1] = molecular target: T1, somatostatin receptors sub-type 2 (Homo sapiens, UniProt P30874); assay: Affinity for somatostatin receptors: inhibition of [125I-Tyr11]SRIF-14 binding to membranes of transfected CHO-K1 cells; conditions: competitive inhibition of [125I-Tyr11]SRIF-14 binding, 37° C.
T1 construct: expressed in transfected cells; membrane preparations
Protocol: (§1) The affinity of the compounds of the invention for the somatostatin receptors is determined by measurement of the inhibition of the bond of [125I-Tyr11]SRIF-14 to membrane preparations of transfected CHO-K1 cells.
(§2) The CHO-K1 cells expressing in a stable fashion each of the sub-types of somatostatin receptors are collected with 0.5 mM of EDTA and centrifuged at 500 g for 5 minutes at 4° C. The pellet is re-suspended in phosphate buffer (PBS) and centrifuged at 500 g for 5 minutes at 4° C. The pellet is re-suspended in Tris 50 mM buffer at pH 7.4 and centrifuged at 500 g for 5 minutes at 4° C. The cells are lyzed by sonication and centrifuged at 39,000 g for 10 minutes. The pellet is re-suspended in Tris 50 mM buffer at pH 7.4, an aliquot is removed for assaying the proteins and the remainder is centrifuged at 50,000 g for 10 minutes. The membranes obtained in this last pellet are stored at −80° C.
(§3) Measurement of the competitive inhibition of the bond of [125I-Tyr11]SRIF-14 (Perkin Elmer) on each of the sub-types of somatostatin receptors is carried out in duplicate in 96-well polypropylene plates. The cell membranes (5 to 20 µg of proteins/well) are incubated with [125I-Tyr11]SRIF-14 (0.05 to 0.1 nM) for 50 to 90 minutes at 37° C. (conditions dependent on the sub-type of receptor) in a HEPES buffer medium 50 mM pH 7.4, comprising 0.2% bovine serum albumin (BSA), MgCl2 5 mM, Trasylol 200 KIU/mL, Bacitracin 0.02 mg/mL, phenylmethylsulphonyl fluoride 0.02 mg/mL.
(§4) The bound [125I-Tyr11]SRIF-14 is separated from the free [125I-Tyr11]SRIF-14 by filtration through GF/C glass fibre plates (Unifilter, Perkin Elmer) pre-impregnated with 0.1% polyethylenimine (P.E.I.), using a Filtermate 96 (Perkin Elmer). The filters are washed with Tris-HCl buffer 50 mM, pH 7.4 at 4° C. and the radioactivity present is determined using a counter (TopCount, Perkin Elmer).
(§5) The data are analyzed by computer-assisted non-linear regression using XLfit 4.2 (IDBS) software.

[2] = molecular target: T2, somatostatin receptors sub-type 5 (Homo sapiens, UniProt P35346); assay: as above; conditions: competitive inhibition of [125I-Tyr11]SRIF-14 binding, 37° C.
T2 construct: expressed in transfected cells; membrane preparations
Protocol: as §1, §2, §3, §4, §5

[3] = Self-assembly study: putting peptides in solution in water, macroscopic, ATR-FTIR, TEM and SAXS analysis; assay type: physicochemical; conditions: 3 to 15% by mass of peptide in water; form and diameter of the self-assembled structure, or soluble / insoluble
Text: The procedure used comprises three stages: putting the peptides in solution and macroscopic analysis; spectroscopic and microscopic analyses of the structures formed and by small-angle X-ray scattering (SAXS) analyses.
The first stage of the characterization of the derivatives is the production of a range of concentrations from 3 to 15% by mass of peptide in water. Gelling of the solution indicates the presence of self-assembled structures which can be nanotubes but can also be fibres or other self-organised structures.
The object of this stage is to verify the presence of self-assembled structures, to characterize their self-assembly and to visualize them by microscopy.
Infrared spectroscopy makes it possible to obtain information on the method of stacking the peptides in the self-assemblies. The amide band spectrum, reflecting the absorption spectra of the carbonyl functions of the peptide backbone, gives information on the type of hydrogen bond in which these groups are involved (H bonds leading to the formation of the […], a helix or also a loop or random conformation) and consequently on the secondary and tertiary structure of the peptides in solution and self-assembled. The attenuated total reflection technique (ATR-FTIR) uses a crystal on which the solid or liquid sample is deposited. The infrared light is guided through this crystal at an angle which allows it to be reflected several times inside the crystal, which increases the sensitivity of the technique. Due to the performance of this device, it is then possible perform measurements on relatively dilute solutions. The beam penetrates a few microns into the sample deposited on the crystal, which means that only the molecules/structures which are deposited on the surface of the crystal are analyzed. Moreover, this technique is non-destructive.
The assembled structures are then visualized by transmission electron microscopy (TEM). This very powerful technique, allowing magnifications greater than 500,000 times, is one of the few techniques capable of visualizing structures on the nanometric scale. The sample is subjected to an electron beam. The visualization of the transmitted beam is produced either by a photoluminescent screen, or by a CCD camera. The sample in the microscope being under vacuum, it is samples dried after staining with uranyl salts in order to increase contrast which are observed.
The peptide in solution is firstly deposited on a copper grid covered with a film of carbon. After deposition of the materiel, the excess liquid is eliminated. In the same way, the solution of colorant, in our case uranyl acetate, is deposited on the grid, the excess is eliminated and the grid is dried in the open air. It can then be introduced into the microscope.
The samples, liquids or gels, are introduced into a capillary column and subjected to a monochromatic flow of X-rays. The intensity diffused is measured as a function of the scattering angle with respect to the incident angle.
The diffusion patterns thus obtained must be the subject of a correlation with a close theoretical model of the structures present in the sample. In the case where the peptides have self-assembled in the form of hollow nanotubes, the modelling of the experimental data with the theoretical diffusion produced by infinitely long hollow columns makes it possible to determine with precision the diameter of the columns and to estimate their wall thickness (Valery et al. in Biophysical journal, 2004, 86(4), 2484-2501 and Proc. Natl. Acad. Sci., 2003, 100(18) 10258-10262). For polydisperse, nanotubular, fibrilar, micellar or lamellar self-assemblies, it is the correlation of the spectroscopic, microscopic and XR scattering data which makes it possible to estimate a size range for the objects observed.

T1 sequence (P30874 whole entry): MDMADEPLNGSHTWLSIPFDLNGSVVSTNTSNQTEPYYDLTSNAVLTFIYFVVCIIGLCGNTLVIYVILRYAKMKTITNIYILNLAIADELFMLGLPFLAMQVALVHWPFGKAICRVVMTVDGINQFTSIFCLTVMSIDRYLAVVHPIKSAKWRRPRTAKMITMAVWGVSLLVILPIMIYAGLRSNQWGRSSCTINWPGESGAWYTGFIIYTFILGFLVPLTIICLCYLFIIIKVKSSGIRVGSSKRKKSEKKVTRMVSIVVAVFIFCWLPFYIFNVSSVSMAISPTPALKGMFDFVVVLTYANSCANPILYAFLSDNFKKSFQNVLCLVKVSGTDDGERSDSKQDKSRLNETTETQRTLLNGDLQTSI
T2 sequence (P35346 whole entry): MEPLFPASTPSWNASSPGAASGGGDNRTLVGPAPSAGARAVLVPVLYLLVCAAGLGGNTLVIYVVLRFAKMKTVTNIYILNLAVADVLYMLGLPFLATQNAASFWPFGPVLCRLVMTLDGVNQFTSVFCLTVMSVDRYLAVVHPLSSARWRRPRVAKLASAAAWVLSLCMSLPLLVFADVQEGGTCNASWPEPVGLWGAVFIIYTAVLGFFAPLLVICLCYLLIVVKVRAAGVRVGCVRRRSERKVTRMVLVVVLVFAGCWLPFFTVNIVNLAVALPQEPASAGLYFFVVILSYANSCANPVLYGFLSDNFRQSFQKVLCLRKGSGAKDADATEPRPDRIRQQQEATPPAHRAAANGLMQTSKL

Compound	pKi [1]	pKi [2]	Assembly [3]
CC(C)[C@@H]1NC(=O)[C@H](CCCCN)NC(=O)[C@@H](Cc2csc3ccccc23)NC(=O)[C@H](Cc2ccc(O)cc2)NC(=O)[C@@H](NC(=O)[C@H](N)Cc2ccc3ccccc3c2)CSSC[C@@H](C(=O)N[C@H](C(N)=O)C(C)O)NC1=O (stereo partly drawn) [Example 1, H-D-2-Nal^1-cyclo(Cys^2-Tyr^3-β-(3-benzothienyl)-D-Ala^4-Lys^5-Val^6-Cys^7)-Thr^8-NH2.2 CH3COOH]	≥ 8.30	≥ 7.00	monodisperse peptide nanotubes and 20 nm monodisperse nanotube
CC(C)[C@@H]1NC(=O)[C@H](CCCCN)NC(=O)[C@@H](Cc2cccs2)NC(=O)[C@H](Cc2ccc(O)cc2)NC(=O)[C@@H](NC(=O)[C@H](N)Cc2ccc3ccccc3c2)CSSC[C@@H](C(=O)N[C@H](C(N)=O)C(C)O)NC1=O (stereo partly drawn) [Example 2, H-D-2-Nal^1-cyclo(Cys^2-Tyr^3-β-(2-thienyl)-D-Ala^4-Lys^5-Val^6-Cys^7)-Thr^8-NH2.2 CH3COOH]	≥ 7.30	≥ 6.00	monodisperse peptide nanotubes and 12 nm monodisperse nanotube
CC(C)[C@@H]1NC(=O)[C@H](CCCCN)NC(=O)[C@@H](C(C)C)NC(=O)[C@H](Cc2ccc(O)cc2)NC(=O)[C@@H](NC(=O)[C@H](N)Cc2ccc3ccccc3c2)CSSC[C@@H](C(=O)N[C@H](C(N)=O)C(C)O)NC1=O (stereo partly drawn) [Example 5, H-D-2-Nal^1-cyclo(Cys^2Tyr^3-D-Val^4-Lys^5-Val^6Cys^7)-Thr^8-NH2.2 CH3COOH] (H-[d2Nal]CY[dV]KVC[Thr(3ξ)]-NH2; disulfide 2-7)	≥ 6.15	≥ 5.30	soluble
CC(C)[C@@H]1NC(=O)[C@H](CCCCN)NC(=O)[C@@H](Cc2c3ccccc3cc3ccccc23)NC(=O)[C@H](Cc2ccc(O)cc2)NC(=O)[C@@H](NC(=O)[C@H](N)Cc2ccc3ccccc3c2)CSSC[C@@H](C(=O)N[C@H](C(N)=O)C(C)O)NC1=O (stereo partly drawn) [Example 8, H-D-2-Nal^1-cyclo(Cys^2Tyr^3-β-(9-anthryl)-D-Ala^4-Lys^5-Val^6Cys^7)-Thr^8-NH2.2 CH3COOH]	≥ 7.30	≥ 7.00	insoluble
CC(C)[C@@H]1NC(=O)[C@H](CCCCN)NC(=O)[C@@H](c2ccccc2)NC(=O)[C@H](Cc2ccc(O)cc2)NC(=O)[C@@H](NC(=O)[C@H](N)Cc2ccc3ccccc3c2)CSSC[C@@H](C(=O)N[C@H](C(N)=O)C(C)O)NC1=O (stereo partly drawn) [Example 10, H-D-2-Nal^1-cyclo(Cys^2-Tyr^3-D-Phg^4-Lys^5-Val^6-Cys^7)-Thr^8-NH2.2 CH3COOH]	≥ 6.15	≥ 5.30	self-assembled fibres
CC(C)[C@@H]1NC(=O)[C@H](CCCCN)NC(=O)[C@@H](Cc2ccccc2Br)NC(=O)[C@H](Cc2ccc(O)cc2)NC(=O)[C@@H](NC(=O)[C@H](N)Cc2ccc3ccccc3c2)CSSC[C@@H](C(=O)N[C@H](C(N)=O)C(C)O)NC1=O (stereo partly drawn) [Example 19, H-D-2-Nal^1-cyclo(Cys^2-Tyr^3-o-Br-D-Phe^4-Lys^5-Val^6-Cys^7)-Thr^8-NH2.2 CH3COOH] (H-[d2Nal]CY[dPhe(2-Br)]KVC[Thr(3ξ)]-NH2; disulfide 2-7)	≥ 8.30	≥ 7.00	
COCCOCCOc1ccc(C[C@H]2NC(=O)[C@H](Cc3ccc(O)cc3)NC(=O)[C@@H](NC(=O)[C@H](N)Cc3ccc4ccccc4c3)CSSC[C@@H](C(=O)N[C@H](C(N)=O)[C@@H](C)O)NC(=O)[C@H](C(C)C)NC(=O)[C@H](CCCCN)NC2=O)cc1 [Example 22, H-D-2-Nal^1-cyclo(Cys^2-Tyr^3-p-2-(2-methoxyethoxy)ethoxy)-D-Phe^4-Lys^5-Val^6-Cys^7)-Thr^8-NH2].2 CH3COOH]			17.4 nm monodisperse nanotube
CC(C)[C@H]1NC(=O)[C@@H](CCCCN)NC(=O)[C@H](Cc2c[nH]c3ccccc23)NC(=O)[C@@H](Cc2ccc(O)cc2)NC(=O)[C@H](NC(=O)[C@@H](N)Cc2ccc3ccccc3c2)CSSC[C@H](C(=O)N[C@@H](C(N)=O)C(C)O)NC1=O (stereo partly drawn) [Example 23, H-2-Nal^1-cyclo(D-Cys^2-D-Tyr^3-Trp^4-D-Lys^5-D-Val^6-D-Cys^7)-D-Thr^8-NH2.2 CH3COOH] (H-[2Nal][dC][dY]W[dK][dV][dC][dThr(3ξ)]-NH2; disulfide 2-7)			24.4 nm monodisperse nanotube
